Series [1] deals with HT-1080 cells. As to the kind of experiment: Rescue activity of selected Fer-1 analogs, dose-response in HT-1080 cells (cell titer glo). The note with it: for potency compared, in words: 0.2 μM RSL3, 10 μM erastin; for IC50: Homo sapiens, HT-1080, range 10 μM-0 μM. Type of series: cell-based. As for the experimental part:
Selected Fer-1 analogs containing a pyridine moiety (FIG. 4) were tested to examine their efficacy and overall potency in inhibiting ferroptosis. For each of these compounds, dose-response curves were generated in HT-1080 cells looking at the effectiveness of the molecules in inhibiting ferroptosis induced by either 3 μM IKE or 0.2 μM RSL3, Fer-1 was used as a positive control. For each dose-response curve, 1,000 cells/well were seeded in a 384 well plate and allowed to adhere overnight prior to treating with compound from a daughter plate. Cells were treated for 48 hours, unless otherwise noted, prior to viability being analyzed using cell titer glo (40 μL per well). All liquid handling was performed using the BioMek. All samples were prepared in triplicate, unless otherwise noted.
For orientation: Cellular ATP, detected with luciferase, serves as a proxy for viable cell number.

Series [2] has as its system HT-1080 cells. Description: Rescue activity of Fer-1 analogs: inhibition of erastin-, IKE- or RSL3-induced death (Alamar Blue viability). Type of series: cell-based. To be noted: Homo sapiens. The procedure:
HT-1080 cells are cultured in DMEM containing 10% fetal bovine serum, 1% supplemented non-essential amino acids and 1% pen/strep mixture (Gibco) and maintained in a humidified environment at 37° C. with 5% CO2 in a tissue culture incubator. 1,000 HT-1080 cells are seeded per well in duplicate 384-well plates (Corning) using a BioMek FX liquid handling robot (Beckman Coulter). The next day, the medium is replaced with 36 μL of medium containing 10 μM erastin with 4 μL of medium containing a dilution series (previously prepared) of DMSO, Fer-1 (positive control) or Fer-1 analogs. […] Cells are incubated a further 6 hours and then the Alamar Blue fluorescence intensity recorded using a Victor 3 platereader (PerkinElmer)(ex/em 530/590). All experiments are performed at least twice and the background (no cells)-subtracted Alamar Blue values for each combination are averaged between replicates. The same procedure was repeated by replacing erastin (10 μM) with IKE (3 μM) or RSL3 (0.2 μM).

A short description of series [3]: Microsomal stability, mouse liver microsomes (Table 1). The class given is in vitro ADME, Mouse: CD1. The note with it: liver microsomes. As for the experimental part: Each compound (1 μM) is incubated with mouse plasma, for 4 hours at 37° C., with shaking at 100 rpm. The concentration of compound in the buffer and plasma chambers is determined using LC-MS/MS. Metabolism of each compound is predicted using Sites of Metabolism (Schrodinger Suite), which combines intrinsic reactivity analysis (Hammett-Taft) with induced fit docking against 2C9, 2D6 and 3A4. This approach identifies 90% of known metabolism sites and has a false positive rate of 17%. The in vitro metabolic stability of each compound in mouse liver microsomes is determined. Pooled mouse liver microsomes are prepared and stored at −80° C. until needed. […]

A short description of series [4]: Microsomal stability, human liver microsomes (Table 1). Type of series: in vitro ADME. The note with it: Human: Pooled, 50 donors; for half-life: liver microsomes, read-out: Microsomal Stability t1/2 (converted). On the technique in general: Microsomes from liver hold many membrane-bound enzymes, among them those of drug oxidation.
Series [5] is described as follows: Microsomal stability, dog (Table 1). Type of series: in vitro ADME. To be noted: liver microsomes; Dog: Beagle; read-out: Microsomal Stability t1/2. The procedure:
Each compound (1 μM) is incubated with mouse plasma, for 4 hours at 37° C., with shaking at 100 rpm. The concentration of compound in the buffer and plasma chambers is determined using LC-MS/MS. Metabolism of each compound is predicted using Sites of Metabolism (Schrodinger Suite), which combines intrinsic reactivity analysis (Hammett-Taft) with induced fit docking against 2C9, 2D6 and 3A4. This approach identifies 90% of known metabolism sites and has a false positive rate of 17%. The in vitro metabolic stability of each compound in mouse liver microsomes is determined. Pooled mouse liver microsomes are prepared and stored at −80° C. until needed. Compound stability in liver microsomes is measured at 0, 15, 30, 45 and 60 minutes in duplicate, using LC-MS/MS analysis.

Series [6] is described as follows: Microsomal stability, rat (Table 1). Type of series: in vitro ADME. The note with it: Rat: Sprague Dawley; for half-life: liver microsomes, read-out: Microsomal Stability t1/2 (converted).
Series [7] concerns HT-1080 fibrosarcoma cells. The note with it: cited from earlier work.
Series [8] concerns HT-1080 cells. As to the kind of experiment: Cell viability assays in HT-1080 cells, ferroptosis induced by IKE or RSL3 (Example 8). The note with it: for IC50: Homo sapiens, HT-1080, 48 h. The class given is cell-based. The procedure:
Cell culture assays were incubated at 37° C. with 5% CO2. HT-1080 cells were grown in DMEM (Corning) supplemented with 10% FBS (Life Technologies), 1% Penicillin-Streptomycin 10,000 U/mL (Gibco), and 1% MEM Non-Essential Amino Acids Solution 100× (Gibco). For cell viability assays, cells were trypsinized, counted, and seeded into 384-well white polypropylene plates at 1,000 cells/well, unless otherwise specified. After allowing cells to adhere overnight, compounds in DMSO stocks were arrayed in a 16-point dilution series prepared in a mother plate, and treated from a daughter plate, [DMSO]=0.28%. After 24 or 48 h, 50% CellTiter-Glo (Promega) 50% cell culture medium was added to each well and incubated at room temperature with shaking for 15 min. Luminescence was measured using a Victor X5 plate reader (PerkinElmer). All cell viability data were normalized to the DMSO vehicle condition. […] All 384w measurements were performed in triplicate
We first evaluated the efficacy of four pyridine analogs, TH-2-9-1, TH-2-31, TH-2-37-1, and TH-2-37-2, in suppressing ferroptosis induced by IKE and RSL3 in HT-1080 cells. […] We sought to determine whether incorporation of pyridine changed stability in mouse liver microsomes.

Where [9] appears, read: HT-1080, ^b 50% viability, HT-1080 treated with 3 μM IKE.
The mark [10] stands for this setting: HT-1080, ^c 50% viability, HT-1080 treated with 0.2 μM RSL3.
The mark [11] stands for this setting: CD1, mouse, Mouse: CD1, read-out: Microsomal Stability t1/2.
Where [12] appears, read: HT-1080, ^a 50% viability, HT-1080 cells treated with 10 μM erastin.

“Also recorded” adds a separate entry of the source.

The IC50 is the concentration needed to halve the response being measured. By EC50 is commonly meant the concentration needed to bring the measured effect to its halfway point. Consider `Cc1noc(-c2cnc(NC3CCCCC3)c(NC3CCCCC3)c2)n1` [CFI-102], for which the “potency compared, in words” value in series [1] (3 μM IKE) is “the most potent analog for both IKE an RSL3”. Further, the 50% inhibitory concentration (IC50) lay in the range of 10 to 20 nM in series [1] (0.2 μM RSL3, 48 hours, read-out: IC50 against RSL3) and 10 to 20 nM in series [1] (3 μM IKE, 48 hours, read-out: IC50 against IKE). For the same molecule, the “toxicity (overall drop in viability)” value in series [1] (at 10 μM compound) is recorded as “appeared to be toxic”. Further, the “concentration achieving full rescue” value in series [1] (starting concentration 5 μM, treated 51 hours, IKE and RSL3) is on record as “around 0.0001 μM”. Besides, the EC50 in series [2] (setting [9]) and in series [2] (setting [10]) was 0.9 nM each time. Further, in series [3] (setting [11]), the half-life lay within 0.5 to 1 h.
Take `Nc1cc(-c2ncco2)ccc1NC1CCCCC1` [CFI-4051]: the half-life in series [4] was greater than 2 h; in series [5], greater than 2 h; in series [6] it was 0.5 to 1 h; in series [3] (setting [11]), 0.0533 to 0.055 h. Also, the EC50 in series [2] (setting [12]) worked out at 36 nM; in series [2] (setting [9]), 13 nM; in series [2] (setting [10]), 5 nM.
As for `CCCC(CC)Nc1ccc(C(=O)OC(C)(C)C)cc1Nc1ccccc1` (stereo not drawn) [CFI-4081], the “Microsomal Stability t1/2” value in series [4] is greater than 2 h.
Consider `Cc1noc(-c2ccc(NC34CC5CC(CC(C5)C3)C4)c(NC3CCCCC3)c2)n1` [CFI-4083], for which the half-life in series [4] was greater than 2 h; in series [3] (CD1 (mouse), mouse, human, in either mouse or human liver microsomes, read-out: T1/2), greater than 2 h; in series [3] (setting [11]), greater than 2 h.
In the case of `CC(C)(C)OC(=O)c1cc(N)c(NC23CC4CC(CC(C4)C2)C3)cc1Cl` [CFI-A3], the half-life was greater than 2 h in series [4], greater than 2 h in series [5], 0.5 to 1 h in series [6] and 0.27 to 0.277 h in series [3] (setting [11]). For the same molecule, the half-maximal effective concentration (EC50) in series [2] (setting [9]) stood at 26 nM; in series [2] (setting [10]), 6 nM.
Take `C=C(/C=C\CNC12CC3CC(CC(C3)C1)C2)COC(C)(C)C` [CFI-A4]: the “Microsomal Stability t1/2” value in series [4] was greater than 2 h; in series [6] it was roughly 0.333 h. In addition, the values for the EC50 in series [2] (setting [9]) and in series [2] (setting [10]) were 16 nM and 1 nM, respectively.
As to `CCOC(=O)c1ccc(NC2CCCCC2)c(NCc2ccccc2)c1` [SRS11-92], the “potency, in words” value in series [7] is given as “low nanomolar potency”.
With `CC(C)(C)OC(=O)c1ccc(NC23CC4CC(CC(C4)C2)C3)c(N=Cc2cncnc2)c1` [SRS16-86], in series [7], the “decrease in potency relative to SRS11-92” value was greater than 50 fold and the “decrease in potency relative to fer-1” value is reported as roughly 4 fold.
Take `COc1cnc(NC2CCCCC2)c(NC2CCCCC2)c1` [TH-2-9-1, N^2,N^3-dicyclohexyl-5-methoxypyridine-2,3-diamine]: the “potency relative to fer-1 at suppressing ferroptosis, in words” value in series [8] was “slightly less potent than fer-1 in inhibiting IKE-induced death”. The 50% inhibitory concentration (IC50) in series [8] (^b 2 μM IKE, 48 hours, 1,000 cells/well) is 16.9 nM; in series [8] (^c 0.2 μM RSL3, 48 hours, 1,000 cells/well) it was 2.7 nM. In addition, the “death observed with RSL3” value in series [1] (0.2 μM RSL3, inhibitor range 10 μM-0 μM) is reported as “No death was observed”. In addition, the “potency compared, in words” value in series [1] (3 μM IKE) is listed as “an order of magnitude more potent than Fer-1 for all inducers beyond RSL3; also recorded: the most potent analog for RSL3 alone”. Moreover, in series [1] (inhibitor 1 μM-0 μM, 3 μM IKE, 10 μM erastin, 48 hours), the “rescue against IKE and erastin” value is given as roughly 50%. In addition, the concentration giving a half-maximal response (EC50) in series [2] (setting [12]) came to 0.1 nM; in series [2] (setting [9]), 0.21 nM; in series [2] (setting [10]), 0.2 nM. The half-life in series [3] (setting [11]) was determined as 0.128 h.

The values are drawn from US20240156790A1, “COMPOUNDS, COMPOSITIONS, AND METHODS FOR MODULATING FERROPTOSIS AND TREATING EXCITOTOXIC DISORDERS” (THE TRUSTEES OF COLUMBIA UNIVERSITY IN THE CITY OF NEW YORK, priority 2018, published 2024).
